We go through 39 compounds from ChEMBL document CHEMBL1134980, “Structure-activity relationships for a series of thiobenzamide influenza fusion inhibitors derived from 1,3,3-trimethyl-5-hydroxy-cyclohexylmethylamine” (Bioorg Med Chem Lett, 2002).

One may read the CC50 as the concentration giving 50% cytotoxicity. Read a high CC50 as better tolerance by the cells. In general, EC50 refers to the concentration needed to bring the measured effect to its halfway point. A high value points to a less potent agent. Broadly, the IC50 is the concentration needed to halve the response being measured. Read a low IC50 as inhibition by little substance.

One experiment deals with MDCK. In words: The concentration causing a 50% reduction in cell viability in the absence of influenza infection on MDCK cells in cell protection assay. It counts as functional. Particulars: Canis lupus familiaris; call rule not given here.
Another experiment relates to Influenza A virus. In words: Anti-influenza activity on A/WSN/33 (H1N1 subtype) strain of influenza virus infected on MDCK cells in cell protection assay. It counts as functional, organism-based.

≈ marks a conversion by molar mass, not a printed value.

Take `CC1(C)C[C@H](O)C[C@](C)(CNC(=O)c2ccccc2O)C1`: it took 70 µg/mL (≈ 240 µM) to reach half-maximal cytotoxicity with MDCK (CC50).
In the experiment on MDCK, `CC1(C)C[C@@H](O)C[C@](C)(C/N=C(\S)c2cc(Cl)ccc2O)C1` came in with a CC50 of 4 µg/mL (≈ 11.7 µM). In the experiment with Influenza A virus, the concentration for a half-maximal effect (EC50) came to 1.8 µg/mL (≈ 5.26 µM) and half-maximal inhibition (IC50) required 1 µg/mL (≈ 2.92 µM).
On the same counts, the results for `Cc1ccc(O)c(C(=O)NC[C@@]2(C)C[C@@H](O)CC(C)(C)C2)c1` are 50 µg/mL (≈ 164 µM), 0.03 µg/mL (≈ 0.0982 µM) and 0.039 µg/mL (≈ 0.128 µM).
Compound `CC1(C)C[C@H](O)C[C@](C)(C/N=C(\S)c2ccccc2O)C1` returned a CC50 in the experiment on MDCK of 40 µg/mL (≈ 130 µM). In the experiment on Influenza A virus, this compound had a concentration for a half-maximal effect (EC50) of 4.5 µg/mL (≈ 14.6 µM) and a half-maximal inhibitory concentration (IC50) of 2.4 µg/mL (≈ 7.81 µM).
The matching figures for `Cc1ccc(O)c(/C(S)=N/C[C@@]2(C)C[C@H](O)CC(C)(C)C2)c1`: 20 µg/mL (≈ 62.2 µM), 0.5 µg/mL (≈ 1.56 µM) and 0.33 µg/mL (≈ 1.03 µM).
`Cc1cccc(/C(S)=N/C[C@@]2(C)C[C@H](O)CC(C)(C)C2)c1` came in with a CC50 with MDCK of 35 µg/mL (≈ 115 µM). Further, in the experiment with Influenza A virus, the EC50 was 0.015 µg/mL (≈ 0.0491 µM) and inhibition was half-maximal at 0.03 µg/mL (≈ 0.0982 µM) (IC50).
Regarding `CC1(C)C[C@@H](O)C[C@](C)(CNC(=O)c2cc(Cl)ccc2O)C1`, in the experiment with MDCK, the CC50 is over 100 µg/mL. In the experiment on Influenza A virus, the 50% effective concentration (EC50) stood at 0.2 µg/mL (≈ 0.614 µM) and inhibition was half-maximal at 0.15 µg/mL (≈ 0.46 µM) (IC50).
For `COc1ccccc1/C(S)=N/C[C@@]1(C)C[C@@H](O)CC(C)(C)C1`, the midpoint of cytotoxicity in the experiment on MDCK, the CC50, lay at 45 µg/mL (≈ 140 µM). In addition, in the experiment with Influenza A virus, the EC50 entry is reported as “Not Active” and the IC50 result is recorded as “Not Active”.
Take `Cc1ccc(/C(S)=N/C[C@@]2(C)C[C@@H](O)CC(C)(C)C2)c(C)c1`: the CC50 with MDCK stood at 30 µg/mL (≈ 93.9 µM). In addition, in the experiment on Influenza A virus, the EC50 entry was “Not Active” and the IC50 entry is listed as “Not Active”.
Consider `Cc1ccccc1/C(S)=N/C[C@@]1(C)C[C@@H](O)CC(C)(C)C1`, for which the CC50 in the experiment with MDCK was found to be 2 µg/mL (≈ 6.55 µM). In the experiment with Influenza A virus, the EC50 entry was “Not Active” and it took 2.4 µg/mL (≈ 7.86 µM) to reach half-maximal inhibition (IC50).
The matching figures for `CC1(C)C[C@H](O)C[C@](C)(C/N=C(\S)c2cccc(Cl)c2)C1`: 8.5 µg/mL (≈ 26.1 µM), “Not Active” and 2.5 µg/mL (≈ 7.67 µM).
The matching figures for `Cc1cccc(/C(S)=N/C[C@@]2(C)C[C@@H](O)CC(C)(C)C2)c1`: 20 µg/mL (≈ 65.5 µM), “Not Active” and 7.5 µg/mL (≈ 24.6 µM).
In the experiment on MDCK, `Cc1ccc(C)c(/C(S)=N/C[C@@]2(C)C[C@H](O)CC(C)(C)C2)c1` showed a CC50 of 45 µg/mL (≈ 141 µM). Also, in the experiment on Influenza A virus, the EC50 was 0.023 µg/mL (≈ 0.072 µM) and the midpoint of inhibition, the IC50, lay at 0.08 µg/mL (≈ 0.25 µM).
The matching figures for `CC1(C)C[C@H](O)C[C@](C)(CNC(=O)c2cc(Cl)ccc2O)C1`: 80 µg/mL (≈ 246 µM), 0.06 µg/mL (≈ 0.184 µM) and 0.025 µg/mL (≈ 0.0767 µM).
On the same counts, the results for `Cc1ccc(/C(S)=N/C[C@@]2(C)C[C@H](O)CC(C)(C)C2)c(C)c1` are 35 µg/mL (≈ 110 µM), 0.15 µg/mL (≈ 0.469 µM) and 0.45 µg/mL (≈ 1.41 µM).
`CC1(C)C[C@@H](O)C[C@](C)(C/N=C(\S)c2cccc(F)c2)C1` returned a CC50 in the experiment on MDCK of 70 µg/mL (≈ 226 µM). For the same compound, in the experiment on Influenza A virus, the EC50 was 0.038 µg/mL (≈ 0.123 µM) and it took 0.19 µg/mL (≈ 0.614 µM) to reach half-maximal inhibition (IC50).
The matching figures for `Cc1ccc(/C(S)=N/C[C@@]2(C)C[C@H](O)CC(C)(C)C2)cc1`: 40 µg/mL (≈ 131 µM), “Not Active” and 7 µg/mL (≈ 22.9 µM).
Consider `Cc1ccc(O)c(/C(S)=N/C[C@@]2(C)C[C@@H](O)CC(C)(C)C2)c1`, for which, in the experiment on MDCK, the CC50 is 15 µg/mL (≈ 46.7 µM). In the experiment with Influenza A virus, this compound gave an EC50 of 0.4 µg/mL (≈ 1.24 µM) and an IC50 of 0.16 µg/mL (≈ 0.498 µM).
The matching figures for `CC1(C)C[C@@H](O)C[C@](C)(C/N=C(\S)c2cccc(Cl)c2)C1`: 20 µg/mL (≈ 61.4 µM), 0.02 µg/mL (≈ 0.0614 µM) and 0.047 µg/mL (≈ 0.144 µM).
On the same counts, the results for `CC1(C)C[C@@H](O)C[C@](C)(C/N=C(\S)c2cccc(C(F)(F)F)c2)C1` are 15 µg/mL (≈ 41.7 µM), 0.09 µg/mL (≈ 0.25 µM) and 0.3 µg/mL (≈ 0.835 µM).
The matching figures for `CC1(C)C[C@H](O)C[C@](C)(C/N=C(\S)c2cccc(F)c2)C1`: 20 µg/mL (≈ 64.6 µM), “Not Active” and 5 µg/mL (≈ 16.2 µM).
Turning to `CC1(C)C[C@H](O)C[C@](C)(C/N=C(\S)c2cc(Cl)ccc2O)C1`, in the experiment with MDCK, the CC50 is 5.5 µg/mL (≈ 16.1 µM). In the experiment on Influenza A virus, this compound showed an EC50 of 0.9 µg/mL (≈ 2.63 µM) and an IC50 of 2.8 µg/mL (≈ 8.19 µM).
In the experiment on MDCK, `COC(=O)c1cccc(/C(S)=N/C[C@@]2(C)C[C@H](O)CC(C)(C)C2)c1` displayed a CC50 of 50 µg/mL (≈ 143 µM). Besides, in the experiment with Influenza A virus, the EC50 entry is on record as “Not Active” and the IC50 result is “Not Active”.
Take `CC1(C)C[C@@H](O)C[C@](C)(C/N=C(\S)c2cccc([N+](=O)[O-])c2)C1`: in the experiment on MDCK, the CC50 was 15 µg/mL (≈ 44.6 µM). Also, in the experiment on Influenza A virus, the EC50 entry is recorded as “Not Active” and the IC50 worked out at 1.8 µg/mL (≈ 5.35 µM).
On the same counts, the results for `CC1(C)C[C@@H](O)C[C@](C)(C/N=C(\S)c2ccccc2O)C1` are 40 µg/mL (≈ 130 µM), 2 µg/mL (≈ 6.5 µM) and 2.4 µg/mL (≈ 7.81 µM).
The matching figures for `CC1(C)C[C@@H](O)C[C@](C)(C/N=C(\S)c2ccccc2)C1`: 10 µg/mL (≈ 34.3 µM), 0.05 µg/mL (≈ 0.172 µM) and 0.15 µg/mL (≈ 0.515 µM).
The matching figures for `Cc1cc(C)cc(/C(S)=N/C[C@@]2(C)C[C@@H](O)CC(C)(C)C2)c1`: 40 µg/mL (≈ 125 µM), “Not Active” and 0.5 µg/mL (≈ 1.56 µM).
As for `CC1(C)C[C@H](O)C[C@](C)(C/N=C(\S)c2ccccc2)C1`, it took 50 µg/mL (≈ 172 µM) to reach half-maximal cytotoxicity in the experiment with MDCK (CC50). For the same compound, in the experiment with Influenza A virus, the EC50 result is “Not Active” and 3.5 µg/mL (≈ 12 µM) corresponded to half-maximal inhibition (IC50).
In the experiment on MDCK, `CC1(C)C[C@@H](O)C[C@](C)(CNC(=O)c2ccccc2O)C1` came in with a cytotoxic concentration (CC50) of 90 µg/mL (≈ 309 µM).
For `CC1(C)C[C@@H](O)C[C@](C)(C/N=C(\S)c2cccc(C#N)c2)C1`, the CC50 in the experiment with MDCK was found to be 22 µg/mL (≈ 69.5 µM). Also, in the experiment on Influenza A virus, the response was half-maximal at 2.5 µg/mL (≈ 7.9 µM) (EC50) and the IC50 result is “Not Active”.
`Cc1ccc(/C(S)=N/C[C@@]2(C)C[C@@H](O)CC(C)(C)C2)cc1` displayed a CC50 in the experiment with MDCK of 25 µg/mL (≈ 81.8 µM). Also, in the experiment with Influenza A virus, the EC50 result is listed as “Not Active” and the concentration for half-maximal inhibition (IC50) entry is recorded as “Not Active”.
With `CC1(C)C[C@H](O)C[C@](C)(C/N=C(\S)c2cccc(C(F)(F)F)c2)C1`, the CC50 with MDCK came to 5 µg/mL (≈ 13.9 µM). In the experiment with Influenza A virus, the EC50 result is “Not Active” and half-maximal inhibition (IC50) was put at 23 µg/mL (≈ 64 µM).
The matching figures for `COc1ccccc1/C(S)=N/C[C@@]1(C)C[C@H](O)CC(C)(C)C1`: 43 µg/mL (≈ 134 µM), 1 µg/mL (≈ 3.11 µM) and 0.5 µg/mL (≈ 1.56 µM).
In the experiment with MDCK, `Cc1cc(C)cc(/C(S)=N/C[C@@]2(C)C[C@H](O)CC(C)(C)C2)c1` had a CC50 of 18 µg/mL (≈ 56.3 µM). Further, in the experiment with Influenza A virus, the EC50 came out at 0.03 µg/mL (≈ 0.0939 µM) and it took 0.52 µg/mL (≈ 1.63 µM) to reach half-maximal inhibition (IC50).
Regarding `Cc1ccccc1/C(S)=N/C[C@@]1(C)C[C@H](O)CC(C)(C)C1`, the CC50 with MDCK worked out at 70 µg/mL (≈ 229 µM). In the experiment with Influenza A virus, the EC50 amounted to 0.065 µg/mL (≈ 0.213 µM) and it took 0.14 µg/mL (≈ 0.458 µM) to reach half-maximal inhibition (IC50).
The matching figures for `Cc1ccc(C)c(/C(S)=N/C[C@@]2(C)C[C@@H](O)CC(C)(C)C2)c1`: 30 µg/mL (≈ 93.9 µM), “Not Active” and 1.5 µg/mL (≈ 4.69 µM).
For the compound `CC1(C)C[C@@H](O)C[C@](C)(CNC(=O)Nc2ccccc2Cl)C1`, in the experiment on Influenza A virus, the IC50 is 0.1 µg/mL (≈ 0.308 µM).
In the case of `Cc1ccc(O)c(C(=O)NC[C@@]2(C)C[C@H](O)CC(C)(C)C2)c1`, in the experiment with MDCK, half-maximal cytotoxicity (CC50) was put at 70 µg/mL (≈ 229 µM). In the experiment with Influenza A virus, this compound yielded an EC50 of 0.15 µg/mL (≈ 0.491 µM) and an IC50 of 0.015 µg/mL (≈ 0.0491 µM).
In the experiment on Influenza A virus, `CC1(C)C[C@H](O)C[C@](C)(CNC(=O)Nc2ccccc2Cl)C1` (relative stereo) gave an IC50 of 0.1 µg/mL (≈ 0.308 µM).
